ChEMBL document CHEMBL4052645, “Discovery of potent and efficacious pyrrolopyridazines as dual JAK1/3 inhibitors” (Bioorg Med Chem Lett, 2017)

Tests used:
[1] = target: Tyrosine-protein kinase JAK1 (Homo sapiens, UniProt P23458); assay: Inhibition of GST-tagged JAK1 (unknown origin) after 3 hrs by Caliper assay
[2] = target: Non-receptor tyrosine-protein kinase TYK2 (Homo sapiens, UniProt P29597); assay: Inhibition of His-tagged TYK2 (unknown origin) after 3 hrs by Caliper assay
[3] = target: T1, Tyrosine-protein kinase JAK3 (Homo sapiens, UniProt P52333); assay: Inhibition of JAK3 (unknown origin) using CSKtide as substrate after 30 mins in presence of [gamma33P]ATP by liquid scintillation counting method
T1 sequence (P52333 whole entry): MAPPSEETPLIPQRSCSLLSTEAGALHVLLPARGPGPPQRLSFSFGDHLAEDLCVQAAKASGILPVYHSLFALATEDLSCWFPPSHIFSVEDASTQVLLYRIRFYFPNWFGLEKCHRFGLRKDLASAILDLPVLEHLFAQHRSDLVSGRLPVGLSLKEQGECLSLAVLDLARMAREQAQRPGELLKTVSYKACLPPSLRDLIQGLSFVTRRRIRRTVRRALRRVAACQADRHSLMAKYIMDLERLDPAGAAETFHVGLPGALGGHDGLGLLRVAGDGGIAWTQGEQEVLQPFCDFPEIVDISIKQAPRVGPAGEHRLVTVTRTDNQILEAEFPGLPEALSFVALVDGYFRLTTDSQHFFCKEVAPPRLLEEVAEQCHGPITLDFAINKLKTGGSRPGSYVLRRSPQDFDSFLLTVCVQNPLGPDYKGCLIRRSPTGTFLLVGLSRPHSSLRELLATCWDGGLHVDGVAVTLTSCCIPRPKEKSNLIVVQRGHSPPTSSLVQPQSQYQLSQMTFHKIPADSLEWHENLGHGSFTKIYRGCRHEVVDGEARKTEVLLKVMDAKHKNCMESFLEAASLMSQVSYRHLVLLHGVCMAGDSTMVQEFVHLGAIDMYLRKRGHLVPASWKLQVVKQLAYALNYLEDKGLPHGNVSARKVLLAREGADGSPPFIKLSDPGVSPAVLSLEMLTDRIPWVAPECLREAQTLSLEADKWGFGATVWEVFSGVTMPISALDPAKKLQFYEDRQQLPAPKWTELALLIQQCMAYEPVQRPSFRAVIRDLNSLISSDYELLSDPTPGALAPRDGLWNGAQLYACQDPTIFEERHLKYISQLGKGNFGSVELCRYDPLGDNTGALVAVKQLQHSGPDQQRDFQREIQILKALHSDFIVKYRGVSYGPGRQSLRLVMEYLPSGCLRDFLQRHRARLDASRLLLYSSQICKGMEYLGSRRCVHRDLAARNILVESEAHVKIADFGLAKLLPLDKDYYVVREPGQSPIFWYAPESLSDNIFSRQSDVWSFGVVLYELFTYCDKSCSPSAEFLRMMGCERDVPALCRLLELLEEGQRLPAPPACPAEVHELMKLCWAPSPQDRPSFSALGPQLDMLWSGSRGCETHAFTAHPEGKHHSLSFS

[4] = target: Tyrosine-protein kinase JAK2 (Homo sapiens, UniProt O60674); assay: Inhibition of GST-tagged JAK2 (unknown origin) after 3 hrs by Caliper assay
[5] = Selectivity ratio of IC50 for JAK2 dependent EPO-induced STAT5A phosphorylation in human TF1 cells to IC50 for JAK1/JAK3 dependent IL2-induced STAT3 phosphorylation in human PBMC derived T-cells
JAK3/JAK1 = JAK3/JAK1 (Homo sapiens, UniProt P23458+P52333); assay: Inhibition of JAK1/JAK3 in human whole blood assessed as reduction in IL-2 induced IFN-gamma production after 18 hrs by ELISA; format: protein-complex assay
[6] = target: Voltage-gated inwardly rectifying potassium channel KCNH2 (Homo sapiens, UniProt Q12809); assay: Inhibition of human ERG by flux-based assay
[7] = Cmax in mouse at 10 mg/kg, po; format: ADME, organism-based; set-up: dose 10 mg/kg, route oral; details: in vivo
[8] = Permeability from apical side to basolateral side in human Caco2 cells; format: ADME, cell-based; details: Caco-2, read-out: permeability
[9] = Metabolic stability in mouse liver microsomes assessed as compound remaining after 10 mins; format: ADME, microsome; details: read-out: Stability
[10] = Protein binding in mouse plasma at 10 mg/kg, po; format: ADME, organism-based; details: read-out: PPB (converted)

Voltage-gated inwardly rectifying potassium channel KCNH2, sequence (Q12809 whole entry): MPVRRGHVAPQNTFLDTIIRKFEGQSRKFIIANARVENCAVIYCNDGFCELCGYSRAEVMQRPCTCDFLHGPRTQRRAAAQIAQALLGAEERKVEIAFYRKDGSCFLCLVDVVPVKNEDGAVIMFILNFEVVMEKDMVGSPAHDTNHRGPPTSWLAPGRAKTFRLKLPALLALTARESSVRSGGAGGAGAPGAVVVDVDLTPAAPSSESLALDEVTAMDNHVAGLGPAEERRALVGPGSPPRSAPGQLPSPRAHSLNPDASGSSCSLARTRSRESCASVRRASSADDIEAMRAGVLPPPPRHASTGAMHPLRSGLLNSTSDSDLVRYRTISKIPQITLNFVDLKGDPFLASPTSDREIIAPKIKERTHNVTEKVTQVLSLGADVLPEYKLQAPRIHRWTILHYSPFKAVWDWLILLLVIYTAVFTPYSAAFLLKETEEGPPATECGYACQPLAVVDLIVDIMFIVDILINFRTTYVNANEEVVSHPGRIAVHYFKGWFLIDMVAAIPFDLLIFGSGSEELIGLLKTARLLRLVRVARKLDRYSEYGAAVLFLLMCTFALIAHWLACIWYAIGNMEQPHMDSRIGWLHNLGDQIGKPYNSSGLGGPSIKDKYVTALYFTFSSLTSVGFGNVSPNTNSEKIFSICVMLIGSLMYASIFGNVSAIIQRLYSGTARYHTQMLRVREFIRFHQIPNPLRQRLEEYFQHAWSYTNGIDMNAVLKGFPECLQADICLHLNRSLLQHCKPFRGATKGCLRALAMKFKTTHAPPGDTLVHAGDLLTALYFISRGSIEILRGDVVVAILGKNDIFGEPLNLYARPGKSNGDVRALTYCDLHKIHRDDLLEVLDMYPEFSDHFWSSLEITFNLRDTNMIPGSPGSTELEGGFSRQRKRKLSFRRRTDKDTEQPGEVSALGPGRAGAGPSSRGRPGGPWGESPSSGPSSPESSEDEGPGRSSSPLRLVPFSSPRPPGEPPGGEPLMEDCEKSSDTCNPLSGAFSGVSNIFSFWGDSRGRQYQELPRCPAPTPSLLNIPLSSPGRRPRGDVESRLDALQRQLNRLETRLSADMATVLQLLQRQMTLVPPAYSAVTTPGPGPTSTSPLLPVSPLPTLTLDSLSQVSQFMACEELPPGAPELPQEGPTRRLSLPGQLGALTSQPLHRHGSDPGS
Tyrosine-protein kinase JAK2, sequence (O60674 whole entry): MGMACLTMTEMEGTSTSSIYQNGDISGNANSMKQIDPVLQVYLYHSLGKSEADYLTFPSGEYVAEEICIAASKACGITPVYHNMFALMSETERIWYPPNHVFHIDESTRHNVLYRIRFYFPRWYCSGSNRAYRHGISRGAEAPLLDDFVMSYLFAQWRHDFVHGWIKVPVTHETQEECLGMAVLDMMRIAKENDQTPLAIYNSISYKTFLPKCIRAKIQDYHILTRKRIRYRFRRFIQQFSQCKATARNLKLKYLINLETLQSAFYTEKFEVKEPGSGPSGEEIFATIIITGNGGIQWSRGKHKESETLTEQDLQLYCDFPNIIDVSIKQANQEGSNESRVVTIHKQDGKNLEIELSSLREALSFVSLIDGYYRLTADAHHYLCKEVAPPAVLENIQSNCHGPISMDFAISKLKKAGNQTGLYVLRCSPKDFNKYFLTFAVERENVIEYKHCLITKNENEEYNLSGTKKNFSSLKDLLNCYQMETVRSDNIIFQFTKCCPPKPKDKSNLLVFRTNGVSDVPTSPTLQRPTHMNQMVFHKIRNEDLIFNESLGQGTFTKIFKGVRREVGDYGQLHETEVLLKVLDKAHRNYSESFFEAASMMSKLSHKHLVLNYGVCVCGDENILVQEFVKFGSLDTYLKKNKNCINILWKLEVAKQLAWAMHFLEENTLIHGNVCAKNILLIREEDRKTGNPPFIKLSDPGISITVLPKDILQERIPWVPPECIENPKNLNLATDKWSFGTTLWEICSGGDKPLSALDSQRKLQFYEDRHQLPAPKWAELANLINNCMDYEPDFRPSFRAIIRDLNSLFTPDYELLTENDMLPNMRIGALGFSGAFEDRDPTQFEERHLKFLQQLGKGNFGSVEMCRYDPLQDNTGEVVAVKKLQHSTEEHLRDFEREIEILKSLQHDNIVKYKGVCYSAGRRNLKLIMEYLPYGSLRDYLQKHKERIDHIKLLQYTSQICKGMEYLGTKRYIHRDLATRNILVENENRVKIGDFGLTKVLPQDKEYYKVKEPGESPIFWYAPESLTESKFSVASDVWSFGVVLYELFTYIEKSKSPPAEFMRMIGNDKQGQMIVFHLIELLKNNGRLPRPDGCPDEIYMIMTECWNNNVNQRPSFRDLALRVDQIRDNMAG
Non-receptor tyrosine-protein kinase TYK2, sequence (P29597 whole entry): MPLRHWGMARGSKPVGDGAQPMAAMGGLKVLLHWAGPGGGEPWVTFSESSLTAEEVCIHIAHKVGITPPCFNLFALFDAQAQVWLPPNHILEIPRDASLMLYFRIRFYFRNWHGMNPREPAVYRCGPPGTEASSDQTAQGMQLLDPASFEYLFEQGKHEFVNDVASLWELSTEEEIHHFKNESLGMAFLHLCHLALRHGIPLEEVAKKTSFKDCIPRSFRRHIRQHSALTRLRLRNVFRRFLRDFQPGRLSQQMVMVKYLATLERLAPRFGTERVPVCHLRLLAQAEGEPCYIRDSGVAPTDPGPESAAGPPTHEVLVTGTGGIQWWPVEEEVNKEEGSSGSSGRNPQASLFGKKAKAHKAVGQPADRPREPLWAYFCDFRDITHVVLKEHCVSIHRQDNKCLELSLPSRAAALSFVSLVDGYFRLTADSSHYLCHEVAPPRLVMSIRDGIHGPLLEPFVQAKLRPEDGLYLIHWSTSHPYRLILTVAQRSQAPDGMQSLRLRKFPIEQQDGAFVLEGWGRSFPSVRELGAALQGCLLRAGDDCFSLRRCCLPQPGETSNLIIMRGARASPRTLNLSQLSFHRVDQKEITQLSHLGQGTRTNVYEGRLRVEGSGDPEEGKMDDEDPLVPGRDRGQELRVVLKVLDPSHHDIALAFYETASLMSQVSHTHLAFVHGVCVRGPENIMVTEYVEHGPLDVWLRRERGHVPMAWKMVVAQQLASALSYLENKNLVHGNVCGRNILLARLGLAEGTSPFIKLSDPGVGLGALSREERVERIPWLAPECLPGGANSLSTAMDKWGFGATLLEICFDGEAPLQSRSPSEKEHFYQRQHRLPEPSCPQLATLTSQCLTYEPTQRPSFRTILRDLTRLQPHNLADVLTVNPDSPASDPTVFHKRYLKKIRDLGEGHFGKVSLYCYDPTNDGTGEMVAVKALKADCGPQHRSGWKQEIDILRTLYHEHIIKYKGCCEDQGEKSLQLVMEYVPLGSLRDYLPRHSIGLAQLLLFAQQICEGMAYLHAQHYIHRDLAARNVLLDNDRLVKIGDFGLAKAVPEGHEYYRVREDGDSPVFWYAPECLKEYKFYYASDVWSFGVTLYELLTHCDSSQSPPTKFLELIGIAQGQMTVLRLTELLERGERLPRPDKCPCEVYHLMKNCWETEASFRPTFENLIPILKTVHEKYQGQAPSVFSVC
JAK3/JAK1, sequence (P23458 whole entry, one chain of several): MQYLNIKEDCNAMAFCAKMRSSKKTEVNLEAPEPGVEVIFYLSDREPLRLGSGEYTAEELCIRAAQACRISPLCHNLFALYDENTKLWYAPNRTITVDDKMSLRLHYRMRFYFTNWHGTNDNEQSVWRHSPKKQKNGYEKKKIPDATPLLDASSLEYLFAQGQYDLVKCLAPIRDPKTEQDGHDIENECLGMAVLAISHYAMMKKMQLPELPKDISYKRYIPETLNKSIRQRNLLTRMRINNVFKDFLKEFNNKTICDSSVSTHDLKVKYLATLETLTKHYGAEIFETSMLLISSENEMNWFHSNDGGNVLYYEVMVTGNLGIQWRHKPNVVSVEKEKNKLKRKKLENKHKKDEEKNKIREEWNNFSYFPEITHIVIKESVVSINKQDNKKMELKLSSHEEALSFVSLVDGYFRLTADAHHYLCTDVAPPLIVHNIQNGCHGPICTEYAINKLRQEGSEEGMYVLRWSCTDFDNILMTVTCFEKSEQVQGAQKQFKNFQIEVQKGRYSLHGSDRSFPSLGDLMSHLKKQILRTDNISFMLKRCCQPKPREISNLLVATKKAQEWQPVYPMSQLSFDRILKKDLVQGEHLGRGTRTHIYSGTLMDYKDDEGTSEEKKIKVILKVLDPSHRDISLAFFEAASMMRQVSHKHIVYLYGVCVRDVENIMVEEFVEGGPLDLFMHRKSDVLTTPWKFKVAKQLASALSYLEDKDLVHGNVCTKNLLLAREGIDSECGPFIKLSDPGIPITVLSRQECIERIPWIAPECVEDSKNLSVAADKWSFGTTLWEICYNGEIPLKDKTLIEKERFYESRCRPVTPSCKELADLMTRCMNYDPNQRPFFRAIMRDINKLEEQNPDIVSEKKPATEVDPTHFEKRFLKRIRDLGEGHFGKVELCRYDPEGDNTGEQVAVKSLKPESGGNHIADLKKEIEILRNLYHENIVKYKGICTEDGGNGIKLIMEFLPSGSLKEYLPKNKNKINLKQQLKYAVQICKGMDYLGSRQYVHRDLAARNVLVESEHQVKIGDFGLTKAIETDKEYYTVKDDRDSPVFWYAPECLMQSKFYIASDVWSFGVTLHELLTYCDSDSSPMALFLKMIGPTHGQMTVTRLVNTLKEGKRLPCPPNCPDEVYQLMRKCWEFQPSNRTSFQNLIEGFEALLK
Tyrosine-protein kinase JAK1, sequence (P23458 whole entry): as the sequence (P23458 whole entry, one chain of several) above

| SMILES | IC50 [1] | IC50 [2] | IC50 [3] | IC50 [4] | Ratio IC50 [5] | IC50 (JAK3/JAK1) | IC50 [6] | Cmax [7] | Papp A→B [8] | remaining at 10 min [9] | fraction unbound [10] |
| --- | --- | --- | --- | --- | --- | --- | --- | --- | --- | --- | --- |
| Cc1cnccc1-c1cc2c(N[C@@H]3CC[C@](C)(N)C3(C)C)c(C(N)=O)cnn2c1 | 2.4 nM | 29 nM | 4 nM | 19 nM | 250 | 75 nM | > 80000 nM | – | – | – | – |
| Cc1ccc(-c2cc3c(N[C@@H]4CC[C@](C)(N)C4(C)C)c(C(N)=O)cnn3c2)cc1 | 0.8 nM | 8.6 nM | 0.7 nM | 14 nM | – | > 2000 nM | – | – | – | – | – |
| Cc1ccncc1-c1cc2c(N[C@@H]3CC[C@](C)(N)C3(C)C)c(C(N)=O)cnn2c1 | – | 180 nM | – | 140 nM | 120 | 97 nM | 18000 nM | – | – | – | – |
| CC1(C)[C@H](Nc2c(C(N)=O)cnn3cc(-c4cccnc4)cc23)CC[C@]1(C)N | – | 34 nM | 0.6 nM | 11 nM | – | 110 nM | – | – | – | – | – |
| CC1(C)[C@H](Nc2c(C(N)=O)cnn3cc(-c4ccncc4)cc23)CC[C@]1(C)N | 4.9 nM | 44 nM | 6.7 nM | 80 nM | – | 56 nM | – | < 250 nM | < 1.5 ×10⁻⁶ cm/s | 75% | 0.31 |
| CC1(C)[C@H](Nc2c(C(N)=O)cnn3cc(-c4cncc(F)c4)cc23)CC[C@]1(C)N | 6.6 nM | 60 nM | 1.9 nM | 44 nM | – | 220 nM | – | – | – | – | – |
| CC1(C)[C@H](Nc2c(C(N)=O)cnn3cc(-c4cccc(F)c4)cc23)CC[C@]1(C)N | 1.2 nM | 22 nM | 1.6 nM | 22 nM | – | > 1000 nM | 7600 nM | – | – | – | – |
| Cc1cccc(-c2cc3c(N[C@@H]4CC[C@](C)(N)C4(C)C)c(C(N)=O)cnn3c2)c1 | 0.9 nM | 7.9 nM | 0.9 nM | 11 nM | 50 | 700 nM | 7700 nM | – | – | – | – |
| COc1ccc(-c2cc3c(N[C@@H]4CC[C@](C)(N)C4(C)C)c(C(N)=O)cnn3c2)cc1 | 0.6 nM | 9.2 nM | 1.5 nM | 15 nM | 46 | 170 nM | 13800 nM | – | – | – | – |
| CC1(C)[C@H](Nc2c(C(N)=O)cnn3cc(-c4ccncc4F)cc23)CC[C@]1(C)N | 3.6 nM | 46 nM | 4.6 nM | 70 nM | 150 | 120 nM | > 80000 nM | < 250 nM | 2.3 ×10⁻⁶ cm/s | 68% | 0.22 |
| COc1cccc(-c2cc3c(N[C@@H]4CC[C@](C)(N)C4(C)C)c(C(N)=O)cnn3c2)c1 | 1 nM | 12 nM | 0.4 nM | 15 nM | 305 | 200 nM | 7200 nM | – | – | – | – |
| CC1(C)[C@H](Nc2c(C(N)=O)cnn3cc(-c4cccc(C#N)c4)cc23)CC[C@]1(C)N | 7.2 nM | 55 nM | 3.8 nM | 47 nM | – | > 1000 nM | – | – | – | – | – |
| Cc1ccccc1-c1cc2c(N[C@@H]3CC[C@](C)(N)C3(C)C)c(C(N)=O)cnn2c1 | 0.7 nM | 51 nM | 1.8 nM | 49 nM | – | 490 nM | – | – | – | – | – |
| CC1(C)[C@H](Nc2c(C(N)=O)cnn3cc(-c4ccccc4C#N)cc23)CC[C@]1(C)N | 1.6 nM | 34 nM | 1.9 nM | 25 nM | 240 | 500 nM | – | – | – | – | – |
| CC1(C)[C@H](Nc2c(C(N)=O)cnn3cc(-c4cccc(Cl)c4)cc23)CC[C@]1(C)N | 1.3 nM | 20 nM | 1 nM | 17 nM | – | 780 nM | – | – | – | – | – |
| COc1cc(-c2cc3c(N[C@@H]4CC[C@](C)(N)C4(C)C)c(C(N)=O)cnn3c2)ccn1 | 2.3 nM | 36 nM | 2.8 nM | 36 nM | 86 | 350 nM | – | – | – | – | – |
| CC1(C)[C@H](Nc2c(C(N)=O)cnn3cc(-c4ccc(C#N)nc4)cc23)CC[C@]1(C)N | 6.6 nM | 47 nM | 1 nM | 29 nM | – | 430 nM | – | – | – | – | – |
| Cc1cc(-c2cc3c(N[C@@H]4CC[C@](C)(N)C4(C)C)c(C(N)=O)cnn3c2)ccn1 | 0.6 nM | 5.7 nM | 0.6 nM | 3.5 nM | 8 | 55 nM | 30000 nM | – | – | – | – |
| CC1(C)[C@H](Nc2c(C(N)=O)cnn3cc(-c4ccccc4Cl)cc23)CC[C@]1(C)N | 0.8 nM | 47 nM | 1.3 nM | 27 nM | – | > 1000 nM | – | – | – | – | – |
| CCOc1ccc(-c2cc3c(N[C@@H]4CC[C@](C)(N)C4(C)C)c(C(N)=O)cnn3c2)cn1 | 4 nM | 38 nM | 1.1 nM | 30 nM | 120 | 800 nM | 17000 nM | – | – | – | – |
| CC1(C)[C@H](Nc2c(C(N)=O)cnn3cc(-c4ccnc(F)c4)cc23)CC[C@]1(C)N | 3.3 nM | 59 nM | 1.6 nM | 38 nM | – | 270 nM | – | – | – | – | – |
| Cc1ccc(-c2cc3c(N[C@@H]4CC[C@](C)(N)C4(C)C)c(C(N)=O)cnn3c2)cn1 | 2 nM | 29 nM | 0.9 nM | 22 nM | 80 | 84 nM | 8000 nM | – | – | – | – |
| CC1(C)[C@H](Nc2c(C(N)=O)cnn3cc(-c4ccccc4F)cc23)CC[C@]1(C)N | 1.2 nM | 15 nM | 1.5 nM | 17 nM | – | 630 nM | – | – | – | – | – |
| CC1(C)[C@H](Nc2c(C(N)=O)cnn3cc(-c4cncnc4)cc23)CC[C@]1(C)N | 28 nM | 190 nM | 11 nM | 160 nM | 180 | 240 nM | 8500 nM | – | – | – | – |
| CC1(C)[C@H](Nc2c(C(N)=O)cnn3cc(-c4ccc(C#N)cc4)cc23)CC[C@]1(C)N | 0.9 nM | 8.6 nM | 1 nM | 7.3 nM | – | 66 nM | – | – | – | – | – |
| CC1(C)[C@H](Nc2c(C(N)=O)cnn3cc(-c4ccc(Cl)cc4)cc23)CC[C@]1(C)N | 0.9 nM | 10 nM | 0.8 nM | 15 nM | – | – | – | – | – | – | – |
| CC1(C)[C@H](Nc2c(C(N)=O)cnn3cc(-c4cc[nH]n4)cc23)CC[C@]1(C)N | 1.7 nM | 14 nM | 1.6 nM | 21 nM | – | 81 nM | – | < 250 nM | 6.5 ×10⁻⁶ cm/s | 83% | 0.51 |
| CC1(C)[C@H](Nc2c(C(N)=O)cnn3cc(-c4ccc(F)cc4)cc23)CC[C@]1(C)N | 1.2 nM | 14 nM | 2.1 nM | 27 nM | 230 | 420 nM | 10200 nM | – | – | – | – |
| CC(C)Oc1ccc(-c2cc3c(N[C@@H]4CC[C@](C)(N)C4(C)C)c(C(N)=O)cnn3c2)cn1 | 1.2 nM | 30 nM | 0.5 nM | 20 nM | 2 | 400 nM | 5300 nM | – | – | – | – |
| COc1ccccc1-c1cc2c(N[C@@H]3CC[C@](C)(N)C3(C)C)c(C(N)=O)cnn2c1 | 0.5 nM | 21 nM | 1.3 nM | 20 nM | 562 | 680 nM | 7500 nM | – | – | – | – |
